Results from ChEMBL document CHEMBL5380782, “Design, Biological Evaluation, and Computer-Aided Analysis of Dihydrothiazepines as Selective Antichlamydial Agents” (J Med Chem, 2023).

Columns and labels:
Thomasclavelia ramosa = assay: Antimicrobial activity against Clostridium ramosum DSM 1402 assessed as microbial growth inhibition incubated for 48 hrs; type: functional
[1] = Mutagenicity in Salmonella typhimurium TA98 assessed as number of revertants per plate at 150 ug pretreated for 90 mins measured after 66 hrs in presence of S9 fraction by AMES test (reference value: 24.33 +/- 9.50); type: toxicity, subcellular, Salmonella enterica subsp. enterica serovar Typhimurium; conditions: s9, 67.5 h, dose 150 µg
[2] = Mutagenicity in Salmonella typhimurium TA98 assessed as mutagenic index ratio at 500 ug pretreated for 90 mins measured after 66 hrs in presence of S9 fraction by AMES test; type: toxicity, subcellular, Salmonella enterica subsp. enterica serovar Typhimurium; conditions: s9, 67.5 h, dose 500 µg
[3] = Mutagenicity in Salmonella typhimurium TA100 assessed as mutagenic index ratio at 1500 ug pretreated for 90 mins measured after 66 hrs by AMES test; type: toxicity, Salmonella enterica subsp. enterica serovar Typhimurium; conditions: in vivo, 67.5 h, dose 1500 µg
[4] = Mutagenicity in Salmonella typhimurium TA98 assessed as number of revertants per plate at 500 ug pretreated for 90 mins measured after 66 hrs by AMES test (reference value: 25.67 +/- 5.51); type: toxicity, Salmonella enterica subsp. enterica serovar Typhimurium; conditions: in vivo, 67.5 h, dose 500 µg
[5] = Stability of compound in human serum assessed as compound remaining at 2 mg/ml measured after 24 hrs by HPLC analysis; type: ADME, cell-free; conditions: read-out: Stability
[6] = Mutagenicity in Salmonella typhimurium TA98 assessed as mutagenic index ratio at 50 ug pretreated for 90 mins measured after 66 hrs by AMES test; type: toxicity, Salmonella enterica subsp. enterica serovar Typhimurium; conditions: in vivo, 67.5 h, dose 50 µg
[7] = Mutagenicity in Salmonella typhimurium TA98 assessed as mutagenic index ratio at 150 ug pretreated for 90 mins measured after 66 hrs in presence of S9 fraction by AMES test; type: toxicity, subcellular, Salmonella enterica subsp. enterica serovar Typhimurium; conditions: s9, 67.5 h, dose 150 µg
[8] = Mutagenicity in Salmonella typhimurium TA98 assessed as number of revertants per plate at 500 ug pretreated for 90 mins measured after 66 hrs in presence of S9 fraction by AMES test (reference value: 24.33 +/- 9.50); type: toxicity, subcellular, Salmonella enterica subsp. enterica serovar Typhimurium; conditions: s9, 67.5 h, dose 500 µg
[9] = system: Lacticaseibacillus rhamnosus; assay: Antimicrobial activity against Lactobacillus rhamnosus CGMCC 1.3724 assessed as microbial growth inhibition incubated for 24 hrs by TTC staining based assay; type: functional
[10] = Mutagenicity in Salmonella typhimurium TA98 assessed as number of revertants per plate at 5000 ug pretreated for 90 mins measured after 66 hrs by AMES test (reference value: 25.67 +/- 5.51); type: toxicity, Salmonella enterica subsp. enterica serovar Typhimurium; conditions: in vivo, 67.5 h, dose 5000 µg
Acinetobacter baumannii = assay: Antimicrobial activity against Acinetobacter baumannii 2208 assessed as microbial growth inhibition incubated for 24 hrs by TTC staining based assay; type: functional
[11] = Mutagenicity in Salmonella typhimurium TA98 assessed as number of revertants per plate at 150 ug pretreated for 90 mins measured after 66 hrs by AMES test (reference value: 25.67 +/- 5.51); type: toxicity, Salmonella enterica subsp. enterica serovar Typhimurium; conditions: in vivo, 67.5 h, dose 150 µg
[12] = Mutagenicity in Salmonella typhimurium TA100 assessed as mutagenic index ratio at 500 ug pretreated for 90 mins measured after 66 hrs by AMES test; type: toxicity, Salmonella enterica subsp. enterica serovar Typhimurium; conditions: in vivo, 67.5 h, dose 500 µg
[13] = Mutagenicity in Salmonella typhimurium TA100 assessed as number of revertants per plate at 500 ug pretreated for 90 mins measured after 66 hrs by AMES test (reference value: 206 +/- 7.07); type: toxicity, Salmonella enterica subsp. enterica serovar Typhimurium; conditions: in vivo, 67.5 h, dose 500 µg
[14] = Cytotoxicity against HEK293 cells assessed as cell viability at 25 ug/ml incubated for 20 hrs by XTT assay relative to control; type: toxicity, cell-based; conditions: human, at 25 µg/mL, read-out: Activity
[15] = Cytotoxicity against HEK293 cells assessed as cell survival at 256 ug/ml incubated for 20 hrs by XTT assay relative to control; type: toxicity, cell-based; conditions: human, at 256 µg/mL, read-out: Survival
Chlamydia trachomatis [16] = assay: Antibacterial activity against Chlamydia trachomatis serovar L2 infected in HEp-2 cells assessed as bacterial growth inhibition incubated for 16 hrs by IFA assay; type: functional, organism-based; conditions: serovar L2, HEp-2, 16 h
[17] = Mutagenicity in Salmonella typhimurium TA98 assessed as number of revertants per plate at 1500 ug pretreated for 90 mins measured after 66 hrs in presence of S9 fraction by AMES test (reference value: 24.33 +/- 9.50); type: toxicity, subcellular, Salmonella enterica subsp. enterica serovar Typhimurium; conditions: s9, 67.5 h, dose 1500 µg
Candida tropicalis = assay: Antimicrobial activity against Candida tropicalis 750 assessed as microbial growth inhibition by broth microdilution method; type: functional
[18] = Mutagenicity in Salmonella typhimurium TA98 assessed as mutagenic index ratio at 1500 ug pretreated for 90 mins measured after 66 hrs in presence of S9 fraction by AMES test; type: toxicity, subcellular, Salmonella enterica subsp. enterica serovar Typhimurium; conditions: s9, 67.5 h, dose 1500 µg
[19] = Mutagenicity in Salmonella typhimurium TA98 assessed as number of revertants per plate at 50 ug pretreated for 90 mins measured after 66 hrs by AMES test (reference value: 25.67 +/- 5.51); type: toxicity, Salmonella enterica subsp. enterica serovar Typhimurium; conditions: in vivo, 67.5 h, dose 50 µg
Chlamydia trachomatis [20] = assay: Antibacterial activity against Chlamydia trachomatis L2 infected in HEp-2 cells assessed as reduction in number of chlamydial inclusion at 3.12 ug/ml incubated for 24 hrs by fluorescence microscopy relative to control; type: functional; parameters: scale not given: the % may be the effect or the level left; conditions: dose 3.12 µg/ml
[21] = Mutagenicity in Salmonella typhimurium TA100 assessed as mutagenic index ratio at 1500 ug pretreated for 90 mins measured after 66 hrs in presence of S9 by AMES test; type: toxicity, Salmonella enterica subsp. enterica serovar Typhimurium; conditions: in vivo, 67.5 h, dose 1500 µg
[22] = Mutagenicity in Salmonella typhimurium TA100 assessed as number of revertants per plate at 150 ug pretreated for 90 mins measured after 66 hrs in presence of S9 by AMES test (reference value: 201 +/- 9.90); type: toxicity, Salmonella enterica subsp. enterica serovar Typhimurium; conditions: in vivo, 67.5 h, dose 150 µg
[23] = Mutagenicity in Salmonella typhimurium TA100 assessed as number of revertants per plate at 50 ug pretreated for 90 mins measured after 66 hrs in presence of S9 by AMES test (reference value: 201 +/- 9.90); type: toxicity, Salmonella enterica subsp. enterica serovar Typhimurium; conditions: in vivo, 67.5 h, dose 50 µg
Chlamydia trachomatis [24] = assay: Inhibition of recombinant Chlamydia trachomatis ClpX ATPase activity assessed as reduction in ATP consumption at 25 ug/ml incubated for 60 mins by Kinase Glo assay relative to control; conditions: dose 25.0 µg/ml
[25] = Mutagenicity in Salmonella typhimurium TA100 assessed as number of revertants per plate at 5000 ug pretreated for 90 mins measured after 66 hrs in presence of S9 by AMES test (reference value: 201 +/- 9.90); type: toxicity, Salmonella enterica subsp. enterica serovar Typhimurium; conditions: in vivo, 67.5 h, dose 5000 µg
[26] = Mutagenicity in Salmonella typhimurium TA100 assessed as mutagenic index ratio at 5000 ug pretreated for 90 mins measured after 66 hrs by AMES test; type: toxicity, Salmonella enterica subsp. enterica serovar Typhimurium; conditions: in vivo, 67.5 h, dose 5000 µg
[27] = Mutagenicity in Salmonella typhimurium TA100 assessed as number of revertants per plate at 150 ug pretreated for 90 mins measured after 66 hrs by AMES test (reference value: 206 +/- 7.07); type: toxicity, Salmonella enterica subsp. enterica serovar Typhimurium; conditions: in vivo, 67.5 h, dose 150 µg
[28] = Mutagenicity in Salmonella typhimurium TA98 assessed as mutagenic index ratio at 5000 ug pretreated for 90 mins measured after 66 hrs by AMES test; type: toxicity, Salmonella enterica subsp. enterica serovar Typhimurium; conditions: in vivo, 67.5 h, dose 5000 µg
[29] = Mutagenicity in Salmonella typhimurium TA98 assessed as mutagenic index ratio at 50 ug pretreated for 90 mins measured after 66 hrs in presence of S9 fraction by AMES test; type: toxicity, subcellular, Salmonella enterica subsp. enterica serovar Typhimurium; conditions: s9, 67.5 h, dose 50 µg

With N#Cc1ccccc1C1Sc2ccccc2NC2=C1C(=O)c1ccccc12 (stereo not drawn) as the molecule, how does the MIC (Thomasclavelia ramosa) read?
The MIC was over 125 µg/mL.

And the Activity [1]?
Its Activity is 35.

What about the Ratio [2] of the same molecule?
The Ratio was 1.78.

And the Ratio [3]?
Its Ratio is 1.16.

And the Activity [4]?
Its Activity is 38.

What about the remaining at 24 h, 2 mg/ml [5] of the same molecule?
The remaining at 24 h, 2 mg/ml was 80%.

And the Ratio [6]?
Its Ratio is 1.01.

What about the Ratio [7] of the same molecule?
The Ratio was 1.43.

And the Activity [8]?
The Activity was 43.5.

What about the MIC [9] of the same molecule?
Its MIC is over 125 µg/mL.

And the Activity [10]?
The Activity was 37.5.

And the MIC (Acinetobacter baumannii)?
The MIC was over 125 µg/mL.

What about the Activity [11] of the same molecule?
Its Activity is 34.5.

What about the Ratio [12] of the same molecule?
The Ratio was 1.13.

And the Activity [13]?
Its Activity is 233.

What about the viability at 20 h, 25 ug/ml [14] of the same molecule?
Its viability at 20 h, 25 ug/ml is 84%.

What about the viability at 20 h, 256 ug/ml [15] of the same molecule?
Its viability at 20 h, 256 ug/ml is at least 75%.

And the IC50 (Chlamydia trachomatis [16]; read-out: IC50)?
Its IC50 is 1.61 µg/mL.

And the IC50 (Chlamydia trachomatis [16]; read-out: pIC50 (converted))?
The IC50 was 4.37 µM.

And the Activity [17]?
Its Activity is 30.5.

And the MIC (Candida tropicalis)?
Its MIC is over 1000 µg/mL.

What about the Ratio [18] of the same molecule?
The Ratio was 1.25.

What about the Activity [19] of the same molecule?
The Activity was 26.

What about the Activity (Chlamydia trachomatis [20]) of the same molecule?
The Activity was under 60%.

What about the Ratio [21] of the same molecule?
Its Ratio is 0.98.

And the Activity [22]?
Its Activity is 187.

And the Activity [23]?
Its Activity is 185.

And the inhibition (Chlamydia trachomatis [24])?
Its inhibition is 20%.

What about the Activity [25] of the same molecule?
The Activity was 227.

What about the Ratio [26] of the same molecule?
Its Ratio is 1.16.

What about the Activity [27] of the same molecule?
Its Activity is 187.5.

And the Ratio [28]?
Its Ratio is 1.46.

And the Ratio [29]?
Its Ratio is 1.31.
